These results are taken from patent publication US8575158B2, “1-phenyl-substituted heterocyclyl derivatives and their use as prostaglandin D2 receptor modulators” (Actelion Pharmaceuticals Ltd., priority 2010, dated 2013).

The test addresses T1, hCRTH2 receptor (Homo sapiens, UniProt Q9Y5Y4).
T1 construct: expressed in transfected cells; host or cells: HEK293
T1 sequence (Q9Y5Y4 1-395): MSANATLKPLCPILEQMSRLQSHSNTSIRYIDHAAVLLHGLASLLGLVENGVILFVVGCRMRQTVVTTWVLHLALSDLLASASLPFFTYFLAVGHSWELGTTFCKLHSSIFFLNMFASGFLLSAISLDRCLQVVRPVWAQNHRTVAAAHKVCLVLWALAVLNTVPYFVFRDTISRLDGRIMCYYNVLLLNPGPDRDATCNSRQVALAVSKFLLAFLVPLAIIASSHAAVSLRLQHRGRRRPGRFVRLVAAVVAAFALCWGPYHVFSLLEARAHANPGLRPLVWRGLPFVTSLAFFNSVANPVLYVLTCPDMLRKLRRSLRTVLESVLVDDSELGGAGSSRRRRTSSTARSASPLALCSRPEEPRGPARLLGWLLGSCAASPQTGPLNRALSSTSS
As to the kind of experiment: Radioligand displacement assay (3H-PGD2) on hCRTH2 receptor membranes. In kind it is binding. The note with it: antagonistic activity. (In a radioligand displacement assay an active substance lowers the binding of a labelled ligand.)

The mark [1] stands for this setting: 3H-PGD2 radioligand displacement, HEK293-hCRTH2 membranes.
Where [2] appears, read: 3H-PGD2 displacement on HEK293-hCRTH2 membrane fragments.

What is called IC50 is the midpoint of a concentration-inhibition curve. `Cc1cc(COC(=O)N2CCc3c(ccc(F)c3F)[C@H]2c2cc(Cl)ccc2OCC(=O)O)on1` [Example 305, (S)-1-(2-Carboxymethoxy-5-chloro-phenyl)-5,6-difluoro-3,4-dihydro-1H-isoquinoline-2-carboxylic acid 3-methyl-isoxazol-5-ylmethyl ester] yielded an IC50 under setting [1] of 2.13 nM.

`O=C(O)COc1ccc(Cl)cc1C1c2ccccc2CCN1C(=O)COc1cnccc1Cl` (racemic) [Example 487]: the IC50 under setting [1] turned out to be 400 nM.

For the molecule `Cc1ncc(COC(=O)N2CCc3c(ccc(F)c3F)[C@H]2c2cc(Cl)ccc2OCC(=O)O)s1` [Example 303, (S)-1-(2-Carboxymethoxy-5-chloro-phenyl)-5,6-difluoro-3,4-dihydro-1H-isoquinoline-2-carboxylic acid 2-methyl-thiazol-5-ylmethyl ester], under setting [1], the IC50 came out at 5.05 nM.

In turn, `Cc1cc(C)n(COC(=O)N2CCc3ccccc3C2c2cc(Cl)ccc2OCC(=O)O)n1` (racemic) [Example 269] gave an IC50 under setting [2] of 4.95 nM.

In turn, `CN(CC(=O)N1CCc2ccccc2C1c1cc(F)ccc1OCC(=O)O)S(=O)(=O)c1cccc(F)c1` (racemic) [Example 211] yielded a half-maximal inhibitory concentration (IC50) under setting [2] of 261 nM.

Regarding `Cc1[nH]c2ccccc2c1CCC(=O)N1CCc2ccccc2C1c1cc(F)ccc1OCC(=O)O` (racemic) [Example 65, (±)-(4-Fluoro-2-{2-[3-(2-methyl-1H-indol-3-yl)-propionyl]-1,2,3,4-tetrahydro-isoquinolin-1-yl}-phenoxy)-acetic acid], the IC50 under setting [2] turned out to be 191 nM.

Regarding `O=C(O)COc1ccc(Cl)cc1C1c2ccc(F)cc2CN1C(=O)OCc1ccccc1` (racemic) [Example 500], under setting [1], the IC50 is 12.9 nM.

`C[C@@H]1C[C@H]1C(=O)N1CCc2ccccc2[C@H]1c1cc(Cl)ccc1OCC(=O)O` [Example 462]: the IC50 under setting [1] came to 80.9 nM.

Regarding `O=C(O)COc1ccc(Cl)cc1C1c2ccccc2CN1C(=O)CCn1ncc2cccc(Cl)c21` (single isomer, unassigned) [Example 536], under setting [1], the concentration for half-maximal inhibition (IC50) stood at 110 nM.

The molecule `N#Cc1ccc(OCC(=O)O)c([C@@H]2c3cccc(F)c3CCN2C(=O)OCc2ccccc2)c1` [Example 32, (S)-1-(2-Carboxymethoxy-5-cyano-phenyl)-5-fluoro-3,4-dihydro-1H-isoquinoline-2-carboxylic acid benzyl ester] displayed an IC50 under setting [2] of 1.99 nM.

Regarding `Cc1cc(C)n(CCOC(=O)N2CCc3ccccc3[C@H]2c2cc(Cl)ccc2OCC(=O)O)n1` [Example 291, (S)-1-(2-Carboxymethoxy-5-chloro-phenyl)-3,4-dihydro-1H-isoquinoline-2-carboxylic acid 2-(3,5-dimethyl-pyrazol-1-yl)-ethyl ester], the IC50 under setting [1] turned out to be 8.92 nM.

In the case of `O=C(O)COc1ccc(Cl)cc1C1c2cccc(F)c2CCN1C(=O)OCCc1ccccc1Cl` (racemic) [Example 179, (±)-1-(2-Carboxymethoxy-5-chloro-phenyl)-5-fluoro-3,4-dihydro-1H-isoquinoline-2-carboxylic acid 2-(2-chloro-phenyl)-ethyl ester], under setting [2], the IC50 was found to be 39.5 nM. In other words, the double-digit nanomolar range.

`Cn1nc(COC(=O)N2CCc3c(ccc(F)c3F)[C@H]2c2cc(Cl)ccc2OCC(=O)O)c2ccccc21` [Example 321, (S)-1-(2-Carboxymethoxy-5-chloro-phenyl)-5,6-difluoro-3,4-dihydro-1H-isoquinoline-2-carboxylic acid 1-methyl-1H-indazol-3-ylmethyl ester] had an IC50 under setting [1] of 1.84 nM.

With `COc1cc2c(ccn2CCC(=O)N2CCc3ccccc3C2c2cc(Cl)ccc2OCC(=O)O)cn1` (racemic) [Example 373], the IC50 under setting [1] stood at 433 nM.

In turn, `Cc1nn(CCC(=O)N2CCc3cc(F)ccc3[C@H]2c2cc(Cl)ccc2OCC(=O)O)c2cc(F)ccc12` [Example 393] had an IC50 under setting [1] of 154 nM.

Molecule `O=C(O)COc1ccc(F)cc1C1c2ccccc2CCN1C(=O)CCN1CCc2ccccc21` (racemic) [Example 146, (±)-{2-[2-(3-2,3-Dihydro-indol-1-yl-propionyl)-1,2,3,4-tetrahydro-isoquinolin-1-yl]-4-fluoro-phenoxy}-acetic acid] showed an IC50 under setting [2] of 61.3 nM.

`O=C(O)COc1ccc(Cl)cc1C1c2ccccc2CCN1C(=O)CCc1c[nH]c2ccccc12` (racemic) [Example 463] showed an IC50 under setting [1] of 12.1 nM.

Under setting [2], `C[C@@H](Oc1ccc(F)cc1C1c2ccccc2CCN1C(=O)OCc1ccccc1)C(=O)O` (stereo partly drawn) [Example 8, 1-[2-((R)-1-Carboxy-ethoxy)-5-fluoro-phenyl]-3,4-dihydro-1H-isoquinoline-2-carboxylic acid benzyl ester] yielded an IC50 of 39.5 nM.

In turn, `O=C(O)COc1ccc(Cl)cc1C1c2ccccc2CCN1C(=O)[C@@H]1C[C@H]1c1cccc(Cl)c1` (single isomer, unassigned; diastereoisomer 1) [Example 151, (±)-(4-Chloro-2-{2-[(trans)-2-(3-chloro-phenyl)-cyclopropanecarbonyl]-1,2,3,4-tetrahydro-isoquinolin-1-yl}-phenoxy)-acetic acid (diastereoisomer 1)] returned an IC50 under setting [2] of 264 nM.

As to `O=C(O)COc1ccc(F)cc1C1c2ccccc2CCN1C(=O)[C@@H]1C[C@H]1c1ccccc1` (mixture of isomers) [Example 67, (±)-{4-Fluoro-2-[2-(trans-2-phenyl-cyclopropanecarbonyl)-1,2,3,4-tetrahydro-isoquinolin-1-yl]-phenoxy}-acetic acid], under setting [2], the IC50 is 15.5 nM.

Turning to `Cc1nn(CCC(=O)N2Cc3ccccc3C2c2cc(Cl)ccc2OCC(=O)O)c2c(F)cccc12` (single isomer, unassigned) [Example 530], the IC50 under setting [1] came out at 101 nM.

`CS(=O)(=O)Nc1cccc2c1CCN(C(=O)OCc1ccccc1)C2c1cc(F)ccc1OCC(=O)O` (racemic) [Example 222, (±)-1-(2-Carboxymethoxy-5-fluoro-phenyl)-5-methanesulfonylamino-3,4-dihydro-1H-isoquinoline-2-carboxylic acid benzyl ester] came in with a concentration for half-maximal inhibition (IC50) under setting [2] of 141 nM.

Under setting [2], `O=C(O)COc1ccc(Cl)cc1[C@@H]1c2ccc(F)c(F)c2CCN1C(=O)OCc1ccccc1` [Example 229, (S)-1-(2-Carboxymethoxy-5-chloro-phenyl)-5,6-difluoro-3,4-dihydro-1H-isoquinoline-2-carboxylic acid benzyl ester] had an IC50 of 4.95 nM.

For `O=C(O)COc1ccc(Cl)cc1[C@@H]1c2ccc(F)cc2CCN1C(=O)OCc1nc2ccccc2o1` [Example 345, (S)-1-(2-Carboxymethoxy-5-chloro-phenyl)-6-fluoro-3,4-dihydro-1H-isoquinoline-2-carboxylic acid benzooxazol-2-ylmethyl ester], under setting [1], the IC50 was 12.4 nM.

The molecule `O=C(O)COc1ccc(Cl)cc1C1c2ccccc2CN1C(=O)CCn1ncc2ccc(F)cc21` (single isomer, unassigned) [Example 534, (4-Chloro-2-{2-[3-(6-fluoro-indazol-1-yl)-propionyl]-2,3-dihydro-1H-isoindol-1-yl}-phenoxy)-acetic acid] registered an IC50 under setting [1] of 12.9 nM.

With `Cc1nn(CCC(=O)N2CCc3cc(F)ccc3[C@H]2c2cc(Cl)ccc2OCC(=O)O)c2cccc(F)c12` [Example 391], under setting [1], the IC50 stood at 158 nM.

`O=C(O)COc1ccc(Cl)cc1C1c2ccccc2CCN1C(=O)OCc1cccc(Cl)c1` (racemic) [Example 364] returned an IC50 under setting [1] of 16.5 nM.

The molecule `COc1ccc2[nH]c(CC(=O)N3CCc4ccccc4C3c3cc(Cl)ccc3OCC(=O)O)cc2c1` (racemic) [Example 99, (±)-(4-Chloro-2-{2-[2-(5-methoxy-1H-indol-2-yl)-acetyl]-1,2,3,4-tetrahydro-isoquinolin-1-yl}-phenoxy)-acetic acid] registered an IC50 under setting [2] of 296 nM. This counts as sub-micromolar.

Under setting [1], `Cc1cncc(OCC(=O)N2CCc3ccccc3C2c2cc(Cl)ccc2OCC(=O)O)c1` (racemic) [Example 474] registered an IC50 of 198 nM.

With `O=C(O)COc1ccc(Cl)cc1C1c2cccc(F)c2CCN1C(=O)COCc1ccccc1` (racemic) [Example 119, (±)-{2-[2-(2-Benzyloxy-acetyl)-5-fluoro-1,2,3,4-tetrahydro-isoquinolin-1-yl]-4-chloro-phenoxy}-acetic acid], under setting [2], the IC50 is 30.9 nM.

Take `O=C(O)COc1ccc(Cl)cc1C1c2ccccc2CCN1C(=O)COCc1ccccc1` (racemic) [Example 105, (±)-{2-[2-(2-Benzyloxy-acetyl)-1,2,3,4-tetrahydro-isoquinolin-1-yl]-4-chloro-phenoxy}-acetic acid]: under setting [2], the IC50 turned out to be 9.95 nM.

`O=C(O)COc1ccc(F)cc1C1c2cc(-c3cncnc3)ccc2CCN1C(=O)OCc1ccccc1` (racemic) [Example 498]: the IC50 under setting [1] is 381 nM.

`COc1ccccc1OCC(=O)N1Cc2ccccc2C1c1cc(Cl)ccc1OCC(=O)O` (racemic) [Example 502] registered an IC50 under setting [1] of 56.2 nM.

`O=C(O)COc1ccc(Cl)cc1C1c2ccccc2CN1C(=O)NCc1cccc(F)c1` (racemic) [Example 553] came in with an IC50 under setting [1] of 17.4 nM.

As for `O=C(O)COc1ccc(Cl)cc1[C@@H]1c2ccc(F)c(F)c2CCN1C(=O)OCCc1ccccc1` [Example 310, (S)-1-(2-Carboxymethoxy-5-chloro-phenyl)-5,6-difluoro-3,4-dihydro-1H-isoquinoline-2-carboxylic acid phenethyl ester], the half-inhibitory concentration (IC50) under setting [1] amounted to 5.14 nM.

Take `O=C(O)COc1ccc(Cl)cc1C1c2ccccc2CCN1C(=O)[C@@H]1C[C@H]1c1cccc(Cl)c1` (mixture of isomers) [Example 421]: the IC50 under setting [1] was 24 nM.

As for `C[C@H](Oc1ccc(F)cc1C1c2ccccc2CCN1C(=O)OCc1ccccc1)C(=O)O` (stereo partly drawn) [Example 2, 1-[2-((S)-1-Carboxy-ethoxy)-5-fluoro-phenyl]-3,4-dihydro-1H-isoquinoline-2-carboxylic acid benzyl ester], the IC50 under setting [2] was 499 nM.
